Consider two compounds from US11000033B2, “Ketone or oxime compound, and herbicide” (NISSAN CHEMICAL CORPORATION, priority 2014, dated 2021).

Format in all cases: in vivo
The test system of series [1] is Lolium multiflorum Lam. In words: Test Example 4: herbicidal effect by soil treatment (symbol K). The method, boiled down:
(§1)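 Seeds were sown in sterilized diluvial soil, covered with about 1.5 cm of soil, and the soil surface was sprayed with a water-diluted emulsion of the compound at a predetermined rate. Plants grew in a greenhouse at 25° C. to 30° C.; effects were scored visually 3 weeks after application.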

The test system of series [2] is Avena fatua. Description: Test Example 4: herbicidal effect by soil treatment (symbol I). The method, boiled down:
as §1

Series [3] concerns Veronica persica. In words: Test Example 4: herbicidal effect by soil treatment (symbol R). The method, boiled down: as §1
Series [4] concerns Apera spica-venti. In words: Test Example 4: herbicidal effect by soil treatment (symbol L). The method, boiled down: as §1
Series [5] deals with Digitaria ciliaris. Description: Test Example 4: herbicidal effect by soil treatment (symbol F). The method, boiled down: as §1
For series [6], the system named is Echinochloa oryzacola Vasing. In words: Test Example 1: herbicidal activity, application before weed generation in submerged conditions (symbol A). Particulars: application herbicide amount 320 g/ha. The method, boiled down: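 In a flooded pot test with alluvial soil, the emulsion-formulated compound was diluted with water to a predetermined amount and applied to the floodwater immediately on the sowing day. Pots were held in a greenhouse at 25–30 °C for 3 weeks before each weed was rated.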

Series [7] deals with soybean. Description: Test Example 4: effect on crop by soil treatment (symbol d). The method, boiled down:
(§2)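 Soil-treatment setup: crop and weed seeds were spot-sown into sterilized diluvial soil, then buried beneath approximately 1.5 cm of it, and the boxes were housed in a 25–30° C. greenhouse.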

For series [8], the system named is rapeseed. Description: Test Example 4: effect on crop by soil treatment (symbol g). The method, boiled down:
as §2

Series [9] has as its system Echinochloa crus-galli var. crus-galli. In words: Test Example 4: herbicidal effect by soil treatment (symbol H). The method, boiled down: as §1
For series [10] the test system is unchanged. In words: Test Example 5: herbicidal effect by foliage application, plastic box (symbol H). Particulars: 320 g/ha, 3 weeks after application. The method, boiled down:
(§3)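 Emulsion formulation, diluted with water to the intended rate, was applied uniformly to leaves by small sprayer. Recipients were 14-day greenhouse-grown seedlings (25° C. to 30° C.). Assessment followed at 3 weeks.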

For series [11], the system named is Apera spica-venti. In words: Test Example 5: herbicidal effect by foliage application, plastic box (symbol L). The following applies: 320 g/ha, 3 weeks after application. The method, boiled down:
as §3

Series [12] relates to Stellaria media. In words: Test Example 5: herbicidal effect by foliage application, plastic box (symbol P). Particulars: 320 g/ha, 3 weeks after application. The method, boiled down: as §3
The test system of series [13] is transplanted rice plant. In words: Test Example 1: effect on crop, application before weed generation in submerged conditions (symbol a). The following applies: application herbicide amount 320 g/ha. The method, boiled down: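 Rice at 2.5 leaf stage transplanted into submerged soil (4 cm depth) sown with three weed species; herbicide applied before weed emergence.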

Series [14] relates to rice. Description: Test Example 4: effect on crop by soil treatment (symbol b). The method, boiled down:
as §2

Series [15] concerns Stellaria media. In words: Test Example 4: herbicidal effect by soil treatment (symbol P). The method, boiled down:
as §1

Series [16] concerns Chenopodium album. In words: Test Example 4: herbicidal effect by soil treatment (symbol O). The method, boiled down: as §1
Series [17] concerns Monochoria vaginalis. In words: Test Example 2: herbicidal activity, application during weed generation in submerged conditions (symbol C). The following applies: Table 23; application herbicide amount 320 g/ha; grade 0-5 by criteria of Test Example 1. The method, boiled down:
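Paddy pot test, submerged (4 cm water), alluvial soil, mixed sowing; greenhouse 25–30° C. Emulsion formulation diluted to predetermined rate, applied onto floodwater at 1–2 leaf stage. Visual herbicidal rating at 3 wk post-treatment.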

Series [18] deals with Lolium multiflorum Lam. Description: Test Example 5: herbicidal effect by foliage application, plastic box (symbol K). Particulars: 320 g/ha, 3 weeks after application. The method, boiled down:
as §3

The mark [19] stands for this setting: application herbicide amount 320 g/ha.

As for `CCCC(=O)CC1CC(O)=C(c2c(C)cc(C)cc2C)C1=O` (stereo not drawn) [2-021], the “K: Lolium multiflorum Lam., herbicidal effect grade” value in series [1] (setting [19]) and in [18] was 5 (Herbicidal ratio of 90% or more (almost completely withered)) throughout. Besides, the “I: Avena fatua, herbicidal effect grade” value in series [2] (setting [19]) was 0 (Herbicidal ratio of 5% or lower (almost no effect)). For the same compound, in [3] (setting [19]), the “R: Veronica persica, herbicidal effect grade” value is on record as 0 (Herbicidal ratio of 5% or lower (almost no effect)). Also, the “L: Apera spica-venti, herbicidal effect grade” value in series [4] (setting [19]) and in [11] was 0 (Herbicidal ratio of 5% or lower (almost no effect)) in each case. The “F: Digitaria ciliaris, herbicidal effect grade” value in series [5] (setting [19]) is 5 (Herbicidal ratio of 90% or more (almost completely withered)). Further, the “Herbicidal effect grade, A: Echinochloa oryzacola Vasing.” value in series [6] is 4 (Herbicidal ratio of 70% or higher and lower than 90%). The “d: soybean, effect on crop grade” value in [7] (setting [19]) is recorded as 0 (Herbicidal ratio of 5% or lower (almost no effect)). Further, the “g: rapeseed, effect on crop grade” value in [8] (setting [19]) was 1 (Herbicidal ratio of 5% or higher and lower than 20%). Besides, the “H: Echinochloa crus-galli var. crus-galli, herbicidal effect grade” value in series [9] (setting [19]) was 4 (Herbicidal ratio of 70% or higher and lower than 90%); in series [10], 4 (Herbicidal ratio of 70% or higher and lower than 90%). Moreover, the “P: Stellaria media, herbicidal effect grade” value in series [12] and in series [15] (setting [19]) was 0 (Herbicidal ratio of 5% or lower (almost no effect)) throughout. Also, the “Effect grade on crop, a: transplanted rice plant” value in series [13] is 5 (Herbicidal ratio of 90% or more (almost completely withered)). The “b: directly sowed rice plant, effect on crop grade” value in series [14] (setting [19]) is on record as 5 (Herbicidal ratio of 90% or more (almost completely withered)). The “O: Chenopodium album, herbicidal effect grade” value in [16] (setting [19]) is 0 (Herbicidal ratio of 5% or lower (almost no effect)). The “Herbicidal effect grade, C: Monochoria vaginalis” value in series [17] is 1 (Herbicidal ratio of 5% or higher and lower than 20%).
Take `COCCOC(=O)OC1=C(c2c(C)cc(C)cc2C)C(=O)C(CC(C)=NOC)C1` (stereo not drawn) [1-147]: the “K: Lolium multiflorum Lam., herbicidal effect grade” value in series [1] (320 g/ha) is 5 (Herbicidal ratio of 90% or more (almost completely withered)). Besides, in [2] (320 g/ha), the “I: Avena fatua, herbicidal effect grade” value was 5 (Herbicidal ratio of 90% or more (almost completely withered)). The “R: Veronica persica, herbicidal effect grade” value in [3] (320 g/ha) is 3 (Herbicidal ratio of 40% or higher and lower than 70%). In series [4] (320 g/ha), the “L: Apera spica-venti, herbicidal effect grade” value was 5 (Herbicidal ratio of 90% or more (almost completely withered)). Further, in series [5] (320 g/ha), the “F: Digitaria ciliaris, herbicidal effect grade” value is 5 (Herbicidal ratio of 90% or more (almost completely withered)). In addition, the “Herbicidal effect grade, A: Echinochloa oryzacola Vasing.” value in [6] is listed as 5 (Herbicidal ratio of 90% or more (almost completely withered)). In series [7] (320 g/ha), the “d: soybean, effect grade on crop” value was 0 (Herbicidal ratio of 5% or lower (almost no effect)). In addition, the “g: rapeseed, effect grade on crop” value in series [8] (320 g/ha) is 4 (Herbicidal ratio of 70% or higher and lower than 90%). Moreover, the “H: Echinochloa crus-galli var. crus-galli, herbicidal effect grade” value in series [9] (320 g/ha) is recorded as 5 (Herbicidal ratio of 90% or more (almost completely withered)). For the same compound, the “H: Echinochloa crus-galli var. crus-galli, herbicidal effect (criteria 0-5)” value in series [10] was 5 (Herbicidal ratio of 90% or more (almost completely withered)). Besides, the “L: Apera spica-venti, herbicidal effect (criteria 0-5)” value in [11] was 5 (Herbicidal ratio of 90% or more (almost completely withered)). In addition, the “P: Stellaria media, herbicidal effect (criteria 0-5)” value in series [12] was 3 (Herbicidal ratio of 40% or higher and lower than 70%). The “Effect grade on crop, a: transplanted rice plant” value in series [13] is 5 (Herbicidal ratio of 90% or more (almost completely withered)). In addition, the “b: directly sowed rice plant, effect grade on crop” value in series [14] (320 g/ha) is given as 5 (Herbicidal ratio of 90% or more (almost completely withered)). Besides, the “P: Stellaria media, herbicidal effect grade” value in series [15] (320 g/ha) was 2 (Herbicidal ratio of 20% or higher and lower than 40%). Moreover, the “O: Chenopodium album, herbicidal effect grade” value in series [16] (320 g/ha) is given as 0 (Herbicidal ratio of 5% or lower (almost no effect)). The “Herbicidal effect grade, C: Monochoria vaginalis” value in [17] is 3 (Herbicidal ratio of 40% or higher and lower than 70%). Also, the “K: Lolium multiflorum Lam., herbicidal effect (criteria 0-5)” value in series [18] is listed as 5 (Herbicidal ratio of 90% or more (almost completely withered)).
